In patent publication US8637536B2, “Pyrimidinone compounds for use in the treatment of diseases or conditions mediated by Lp-PLA2” (Glaxo Group Limited, priority 2010, dated 2014):

Molecular target: T1, Lp-PLA2 from plasma (pooled human plasma) (Homo sapiens, UniProt Q13093)
T1 construct: 8 μL pooled human plasma; from tissue; host or cells: pooled human plasma
T1 sequence (Q13093 22-441): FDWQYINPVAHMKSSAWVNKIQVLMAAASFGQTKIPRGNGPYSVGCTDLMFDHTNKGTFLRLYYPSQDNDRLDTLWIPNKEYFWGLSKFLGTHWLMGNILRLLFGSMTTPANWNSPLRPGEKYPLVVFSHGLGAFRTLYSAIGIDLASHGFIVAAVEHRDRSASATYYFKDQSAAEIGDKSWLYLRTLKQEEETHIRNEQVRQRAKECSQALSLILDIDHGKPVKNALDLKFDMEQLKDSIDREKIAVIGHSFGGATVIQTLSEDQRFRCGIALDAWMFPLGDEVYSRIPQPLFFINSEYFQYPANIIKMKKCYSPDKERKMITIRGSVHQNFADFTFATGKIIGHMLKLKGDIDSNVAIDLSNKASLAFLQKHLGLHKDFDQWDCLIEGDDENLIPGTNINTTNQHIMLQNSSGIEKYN
Experiment: Lp-PLA2 human plasma assay (Thio-PAF assay)
Assay type: biochemical
Conditions: text thresholds, read-out: pIC50 values in the thio-PAF assay (converted)
Excerpt: (3) Lipoprotein-Associated Phospholipase A2 (Lp-PLA2) Human Plasma Assay (Also Referred to as “Thio-PAF Assay”)
The human plasma assay utilizes a thioester analog of PAF (phosphatidylcholine), where hydrolysis yields to the formation of a phospholipid containing a free thiol group. The amount of thiol is quantitated continuously by reacting with CPM (7-diethylamino-3-(4′-maleimidylphenyl)-4-methylcoumarin), a maleimide which increases in fluoresence after Michael addition of thiols. This assay may detect the activity of Lp-PLA2 from plasma, as determined by specific inhibition by Lp-PLA2 inhibitors.
The thio-PAF assay was run as a quenched 15 μL assay. Compounds source plate was prepared by making 1:3 (by volume) serial dilution of the compounds into pure DMSO on 384-well microplate. 0.01 μL of compounds on compound source plate were transferred to 384 well Greiner 784076 (black) low-volume plates by ECHO liquid dispenser. 8 μL pooled human plasma, which was previously aliquoted and frozen, was added. Plates were centrifuged for 10 sec at 500 rpm. After 30 minutes preincubation, 2 μL of substrate (2.5 mM thio-PAF, 3.2 mM NEM (N-ethylmaleimide) [made fresh daily in DMSO], and 32 μM CPM [from a DMSO stock] in assay buffer of 50 mM HEPES, pH7.4, 150 mM NaCl, 1 mM CHAPS was added to 384 well Greiner 784076 (black) low-volume plates by BRAVO liquid handling station. Plates were centrifuged for 10 sec at 500 rpm. Plate was covered to protect from light and incubated for 2 min at room temperature. Reaction was quenched with 5 μL of 5% aqueous trifluoroacetic acid (TFA). Plates were covered to protect from light and incubated for 40 min at room temperature. Plates were read at ex: 380/em: 485 using-Envision microplate reader. PIC50 data, curve and QC analysis was conducted by using XLFit module in Excel.

| Structure (SMILES) | IC50 |
| --- | --- |
| N#Cc1cc(CSc2nc(=O)c(Cc3cncnc3)c[nH]2)ccc1Oc1ccc(C(F)(F)F)cn1 [E73, 5-({[4-oxo-5-(5-pyrimidinylmethyl)-1,4-dihydro-2-pyrimidinyl]thiol}methyl)-2-{[5-(trifluoromethyl)-2-pyridinyl]oxy}benzonitrile] | ≤ 100 nM |
| CCc1cn(C)c(OCCc2cc(F)c(Oc3ccc(Cl)c(C(F)(F)F)c3)c(F)c2)nc1=O [E175, 2-{[2-(4-{[4-chloro-3-(trifluoromethyl)phenyl]oxy}-3,5-difluorophenyl)ethyl]oxy}-5-ethyl-1-methyl-4(1H)-pyrimidinone] | ≤ 100 nM |
| COc1ncc(Cc2c[nH]c(NCCc3ccc(Oc4cccc(C(F)(F)F)c4)cc3)nc2=O)cn1 [E193, 5-(2-methoxy-pyrimidin-5-ylmethyl)-2-{2-[4-(3-trifluoromethyl-phenoxy)phenyl]-ethylamino}-1H-pyrimidin-4-one] | ≤ 1000 nM |
| Cc1ncc(Cc2c[nH]c(NCCc3ccc(Oc4ccc(C(F)(F)F)cn4)cc3)nc2=O)cn1 [E208, 5-(2-methyl-pyrimidin-5-ylmethyl)-2-{2-[4-(5-trifluoromethyl-pyridin-2-yloxy)phenyl]ethylamino}-1H-pyrimidin-4-one] | ≤ 1000 nM |
| O=c1nc(OCCc2ccc(Oc3ccc(Cl)c(C(F)(F)F)c3)cc2)[nH]cc1Cc1cnc(C(F)(F)F)nc1 [E126, 2-{[2-(4-{[4-chloro-3-(trifluoromethyl)phenyl]oxy}phenyl)ethyl]oxy}-5-{[2-(trifluoromethyl)-5-pyrimidinyl]methyl}-4(1H)-pyrimidinone] | ≤ 1000 nM |
| O=c1nc(OCCc2ccc(Oc3ccc(Cl)c(OC(F)(F)F)c3)cc2)[nH]cc1Cc1cncnc1 [E177, 2-(4-(4-chloro-3-(trifluoromethoxy)phenoxy)phenethoxy)-5-(pyrimidin-5-ylmethyl)pyrimidin-4(1H)-one] | ≤ 100 nM |
| COc1ncc(Cc2c[nH]c(OCCc3ccc(Oc4ccc(C)c(F)c4)cc3)nc2=O)cn1 [E157, 2-[(2-{4-[(3-fluoro-4-methylphenyl)oxy]phenyl}ethyl)oxy]-5-{[2-(methyloxy)-5-pyrimidinyl]methyl}-4(1H)-pyrimidinone] | ≤ 1000 nM |
| CCc1cn(C)c(OCCc2ccc(Oc3ccc(Cl)c(C(F)(F)F)c3)c(F)c2)nc1=O [E174, 2-{[2-(4-{[4-chloro-3-(trifluoromethyl)phenyl]oxy}-3-fluorophenyl)ethyl]oxy}-5-ethyl-1-methyl-4(1H)-pyrimidinone] | ≤ 100 nM |
| COc1ncc(Cc2c[nH]c(OCCc3ccc(Oc4cc(Cl)cc(C(F)(F)F)c4)cc3)nc2=O)cn1 [E165, 2-{[2-(4-{[3-chloro-5-(trifluoromethyl)phenyl]oxy}phenyl)ethyl]oxy}-5-{[2-(methyloxy)-5-pyrimidinyl]methyl}-4(1H)-pyrimidinone] | ≤ 100 nM |
| COc1ncc(Cc2c[nH]c(OCCc3ccc(Oc4cnc(C(F)(F)F)nc4)c(F)c3)nc2=O)cn1 [E167, 2-(3-fluoro-4-((2-(trifluoromethyl)pyrimidin-5-yl)oxy)phenethoxy)-5-((2-methoxypyrimidin-5-yl)methyl)pyrimidin-4(1H)-one] | ≤ 100 nM |
| COc1ncc(Cc2c[nH]c(OCCc3ccc(Oc4ccc(Cl)c(OC(F)(F)F)c4)cc3)nc2=O)cn1 [E178, 2-(4-(4-chloro-3-(trifluoromethoxy)phenoxy)phenethoxy)-5-((2-methoxypyrimidin-5-yl)methyl)pyrimidin-4(1H)-one] | ≤ 100 nM |
| O=c1nc(NCCc2ccc(Oc3ccc(Cl)cc3)cc2)[nH]cc1Cc1cncnc1 [E194, 2-{2-[4-(4-Chloro-phenoxy)-phenyl]-ethylamino}-5-pyrimidin-5-ylmethyl-1H-pyrimidin-4-one] | ≤ 1000 nM |
| CN(CCc1ccc(Oc2cccc(C(F)(F)F)c2)cc1)c1nc(=O)c(Cc2cncnc2)c[nH]1 [E187, 2-(Methyl-{2-[4-(3-trifluoromethyl-phenoxy)-phenyl]-ethyl}-amino)-5-pyrimidin-5-ylmethyl-1H-pyrimidin-4-one] | ≤ 1000 nM |
| Cc1ncc(Cc2c[nH]c(NCCc3ccc(Oc4ccc(C(F)(F)F)cn4)c(C#N)c3)nc2=O)cn1 [E203, 5-{2-[5-(2-Methyl-pyrimidin-5-ylmethyl)-4-oxo-1,4-dihydro-pyrimidin-2-ylamino]-ethyl}-2-(5-trifluoromethyl-pyridin-2-yloxy)-benzonitrile] | ≤ 100 nM |
| O=c1ncc(Cc2c[nH]c(NCCc3ccc(Oc4ccc(Cl)c(C(F)(F)F)c4)cc3)nc2=O)c[nH]1 [E209, 2-{2-[4-(4-chloro-3-trifluoromethyl-phenoxy)-phenyl]ethylamino}-5-(2-oxo-1,2-dihydro-pyrimidin-5-ylmethyl)-1H-pyrimidin-4-one] | ≤ 1000 nM |
| Cc1ncc(Cc2c[nH]c(NCCc3ccc(Oc4ccc(Cl)c(C(F)(F)F)c4)c(C#N)c3)nc2=O)cn1 [E211, 2-(4-Chloro-3-trifluoromethyl-phenoxy)-5-{2-[5-(2-methyl-pyrimidin-5-ylmethyl)-4-oxo-1,4-dihydro-pyrimidin-2-ylamino]-ethyl}-benzonitrile] | ≤ 1000 nM |
| COc1ncc(Cc2c[nH]c(OCCc3cc(F)c(Oc4cnc(C(F)(F)F)nc4)c(F)c3)nc2=O)cn1 [E169, 2-(3,5-difluoro-4-((2-(trifluoromethyl)pyrimidin-5-yl)oxy)phenethoxy)-5-((2-methoxypyrimidin-5-yl)methyl)pyrimidin-4(1H)-one] | ≤ 100 nM |
| O=c1nc(NCCc2ccc(Oc3cccc(C(F)(F)F)c3)cc2)[nH]cc1Cc1cncnc1 [E185, 5-Pyrimidin-5-ylmethyl-2-{2-[4-(3-trifluoromethyl-phenoxy)-phenyl]-ethylamino}-1H-pyrimidin-4-one] | ≤ 1000 nM |
| Cn1cc(Cc2cncnc2)c(=O)nc1SCc1ccc(Oc2ccc(C(F)(F)F)cn2)c(C#N)c1 [E105, 5-({[1-methyl-4-oxo-5-(5-pyrimidinylmethyl)-1,4-dihydro-2-pyrimidinyl]thio}methyl)-2-{[5-(trifluoromethyl)-2-pyridinyl]oxy}benzonitrile] | ≤ 100 nM |
| Cn1cc(Cc2cncnc2)c(=O)nc1SCc1ccc(Oc2ccc(Cl)c(C(F)(F)F)c2)c(C#N)c1 [E79, 2-{[4-chloro-3-(trifluoromethyl)phenyl]oxy}-5-({[1-methyl-4-oxo-5-(5-pyrimidinylmethyl)-1,4-dihydro-2-pyrimidinyl]thio}methyl)benzonitrile] | ≤ 100 nM |
| COc1ncc(Cc2c[nH]c(NCCc3ccc(Oc4ccc(Cl)c(C(F)(F)F)c4)cc3)nc2=O)cn1 [E9, 2-{[2-(4-{[4-Chloro-3-(trifluoromethyl)phenyl]oxy}phenyl)ethyl]amino}-5-{[2-(methyloxy)-5-pyrimidinyl]methyl}-4(1H)-pyrimidinone] | ≤ 100 nM |
| Cn1cc(Cc2cncnc2)c(=O)nc1SCc1ccc(Oc2ccc(F)c(C(F)(F)F)c2)c(C#N)c1 [E88, 2-{[4-fluoro-3-(trifluoromethyl)phenyl]oxy}-5-({[1-methyl-4-oxo-5-(5-pyrimidinylmethyl)-1,4-dihydro-2-pyrimidinyl]thio}methyl)benzonitrile] | ≤ 100 nM |
| Cc1ncc(Cc2c[nH]c(NCCc3ccc(Oc4ccc(C(F)(F)F)c(Cl)c4)cc3)nc2=O)cn1 [E207, 2-{2-[4-(3-chloro-4-trifluoromethyl-phenoxy)-phenyl]ethylamino}-5-(2-methyl-pyrimidin-5-ylmethyl)-1H-pyrimidin-4-one] | ≤ 1000 nM |
